Source: a melting point compilation (Tetko et al.; mined from patent text by program, amines drawn as free bases though some values may be those of a salt)

| melting point [°C] | Structure (SMILES) |
| --- | --- |
| 125 to 126 | CCc1c(Oc2cc(C)cc(C)c2)n(C/C=C/CO)c(=O)[nH]c1=O |
| 175 | CC(C)C1C(=O)Nc2ccc(O)cc21 (centres undefined) |
| 249 | CC(C)(C)OC(=O)n1cnc2c([N+](=O)[O-])cccc21 |
| 183 to 186 | CON=C(CCC(=O)O)c1ccc(-c2ccc(Cl)cc2)cc1 |
| 90 to 91 | CC(=O)N1CCC(CCCC(=O)c2ccc3c(c2)CCNCC3)CC1 |
| 219 to 220 | CCS(=O)(=O)c1nsc(NC(=O)NC)c1C(N)=O |
| 81 to 82 | c1ccc2oc(COc3ccc(CCCn4ccnc4)cc3)nc2c1 |
| 59 | CCCCCCCCN1N=C(C)CC1=O |
| 73 to 74.5 | Cc1c([N+](=O)[O-])ccc(OCc2ccccc2)c1Cl |
| 259 to 262 | Cn1ncc(C(=O)N2CC(F)C2)c1C(=O)Nc1ccn2nc(-c3ccccc3)nc2c1 |
| 132 to 133 | COc1ccc([C@@H]2SC(c3ccccc3)=C(C)N(CCN(C)C)C(=O)[C@H]2O)cc1 (relative stereo) |
| 290 to 291 | O=C1CC(c2ccccc2O)=Nc2ccc(N3CCOCC3)cc21 |
| 232 | CCOC(c1ccc(C=NO)cc1)(c1ccc2[nH]c(=O)cc(-c3cccc(Cl)c3)c2c1)c1cncn1C (centres undefined) |
| 147 to 150 | COc1cc(OC)nc(NS(=O)(=O)C(C(N)=O)C(C)C)n1 (centres undefined) |
| 190 to 193 | Cc1cccc(NC(=O)OCc2cccc(O)c2)c1CNc1cccn2c(C)c(C)nc12 |
| 162 to 163 | Cc1ccc(N(C=C(C#N)C#N)N=C(C#N)C#N)cc1C |
| 77 to 79 | O=[N+]([O-])c1cc(I)cnc1Cl |
| 233 to 234 | O=S1(=O)N=CN(CCF)c2cc(Cl)c(Cl)cc21 |
| 84 to 86 | CC(C)[C@@H]1CC[C@@H](C)C[C@H]1OC(=O)NCCC(C)n1cnc2c(N)nc3ccccc3c21 (some centres undefined) |
| 100 to 101 | CCOc1cc(C(O)C(C)C)cc2c1OC(C)(C)C2 (centres undefined) |
| 115 to 120 | CCOC(=O)C(C)Oc1ccc(-c2nc(-c3ccc(OC(C)C(=O)OCC)cc3O)nc(-c3ccc(OC(C)C(=O)OCC)cc3O)n2)c(O)c1 (centres undefined) |
| 113 | Nc1ccccc1C(=O)NCCCN1CCC(C(=O)c2ccc(F)cc2)CC1 |

| melting point [°C] | Structure (SMILES) |
| --- | --- |
| 237 to 239 | CC(C)(C)CN(NC(=O)c1ccccc1)C(=O)c1ccccc1 |
| 164 to 165 | Cn1ncnc1COc1nn2c(-c3ccccc3F)nncc2c1-c1cc(F)ccc1F |
| 64 to 67 | [N-]=[N+]=NC[C@H]1CN(c2ccc(Br)cn2)C(=O)O1 |
| 245 | CS(=O)(=O)c1cccc(NC(=O)c2cnn3c(C(F)(F)F)cc(-c4ccc(OC(F)(F)F)cc4)nc23)c1 |
| 206 to 209 | CCCc1nc2c(N)nc3cc(-c4ccccc4NC(C)=O)ccc3c2s1 |
| 198 | CN1C(=O)C(=O)N(Cc2ccccc2)CC1(CCO)c1ccc(Cl)c(Cl)c1 (centres undefined) |
| 100 to 101 | CC(C)(C)OC(=O)C1CC1c1ccc(-c2ncn(-c3ccc(OC(F)(F)F)cc3)n2)cc1 (centres undefined) |
| 135 | S=c1cc(-c2ccc(Cl)cc2)ss1 |
| 165 to 172 | CON=C(C(=O)OC)c1cc(Cl)nc(NC=O)n1 |
| 151 | Cc1ccc(O)c(C(OC2CCN(C)CC2)c2nc3ccccc3[nH]2)c1 (centres undefined) |
| 291 to 294 | O=C(O)c1cn(C2CC2)c2cc(N3CCC3)c(F)cc2c1=O |
| 163 to 164 | CC1(C)C(=O)N(c2ccc([N+](=O)[O-])c(C(F)(F)F)c2)C(=O)N1CCCCCN1C(=O)N(c2ccc([N+](=O)[O-])c(C(F)(F)F)c2)C(=O)C1(C)C |
| 196 to 201 | Nc1ncc(Cl)cc1O |
| 191 to 193 | Oc1cccc2ccc(N3CCN(c4nc5ccc(C(F)(F)F)cc5[nH]4)CC3)nc12 |
| 141 | O=C(c1ccc(Cl)cc1)c1cccc([N+](=O)[O-])c1N1CCCCC1 |
| 148 to 149 | COc1ccc(-c2cnoc2-c2ccc(OC(C)C)cc2O)cc1 |
| 42 to 43 | CN(C)C(=O)CCCOC(=O)C(C)(OCc1ccc2ccccc2c1)C(F)(F)F (centres undefined) |
| 149 to 151 | CCCCCCc1ccc(-c2cnn(C(C)(C)Cc3ccc(C)cc3)c2O)cc1 |
| 146 to 148 | CNC(=O)c1c(NC(=O)CCl)c(OC)c(C(=O)NC)c(NC(=O)CCl)c1OC |
| 161 to 162 | O=C(NCc1cccnc1)c1sc(N2CCN(Cc3ccc(F)cc3)C2=O)nc1C(F)(F)F |
| 140 to 142 | CC/C(=C(\c1ccc(/C=C/C(=O)O)cc1)c1ccc(OC(=O)OC)cc1)c1ccccc1 |
| 158 to 159 | CN1CCC2(CC1=O)c1ccccc1Oc1ccccc12 |

| melting point [°C] | Structure (SMILES) |
| --- | --- |
| 225 to 227 | CCCc1ccc2ncc(C(=O)NCc3ccc(Cl)cc3)c(O)c2c1 |
| 119 | COC(=O)C(C)C(=O)Nc1ccc(OCc2cccc(F)c2)cc1 (centres undefined) |
| 138 to 139 | Cc1cc(Br)cnc1CCCCNc1ncc(Cc2ccccc2)c(=O)[nH]1 |
| > 310 | CS(=O)(=O)c1ccc2[nH]c(=O)c(C#N)cc2c1 |
| 300 | COc1ccc(N2CCN(c3ccc(-n4cn[nH]c4=O)cc3)CC2)cc1 |
| 103 to 104 | CCCCCN(CCC12CC3CC(CC(C3)C1)C2)C(=O)NCC(C)Cc1ccncc1 (centres undefined) |
| 277 | CC1(C)C(=CC=C2C(=O)c3ccccc3C2=C(C#N)C#N)N2CCc3cccc1c32 |
| 154 to 159 | CC(C)(C)OC(=O)N1CCC(O)(CS(=O)(=O)NC(=O)c2cc(C(F)(F)F)cc(C(F)(F)F)c2)CC1 |
| 275 to 277 | O=C(NC1CCN(CCCOc2ccccc2-c2nnn[nH]2)CC1)c1ccccc1 |
| 170 to 171 | N#Cc1cscc1C#N |
| 134 to 136 | CC1(C)CC(=O)OC1c1ccc(Cl)c([N+](=O)[O-])c1 (centres undefined) |
| 78 to 85 | CC1=Nc2ccccc2CN1C1CCC(=O)NC1=O (centres undefined) |
| 172 to 174 | CC(C)C(C(=O)O)c1ccc(O)cc1 (centres undefined) |
| 138 | O=C(O)CC1(c2ccc(Cl)cc2)Oc2ccccc2O1 |
| 174 to 175 | O=Cc1c2ccccc2c(Cl)c2cc(Cl)ccc12 |
| 151 to 152 | CCC(=S)OC1(C(=O)COC(=O)C(C)C)CCC2C3CC(C)C4=CC(=O)C=CC4(C)C3C(O)CC21C (centres undefined) |
| 104 to 105 | C=C(C)C(=O)NCC(C)OC(=O)C(Br)(Br)Br (centres undefined) |
| 176 to 177 | CN(C)CCCOc1ccc(-c2n[nH]c3ncccc23)cc1 |
| 128 to 129 | O=S(=O)(NCCCN1CCC(Oc2ccc(F)c(F)c2)CC1)c1ccc(-c2ccccn2)s1 |
| 78 to 79 | O=C(O)CCc1cn(Cc2cc(OCc3csc(-c4ccccc4)n3)cc(OCc3csc(-c4ccccc4)n3)c2)cc1-c1ccccc1 |

| Structure (SMILES) | melting point [°C] |
| --- | --- |
| CC(=O)c1cccc(NC(=O)NC2N=C(c3ccccc3F)c3cccc(C)c3N(CC(=O)N3CC4CCC(CC4)C3)C2=O)c1 (centres undefined) | > 250 |
| N#Cc1ccc(N2C(=O)C3CSCN3C2=O)c2ccccc12 (centres undefined) | 223 to 225 |
| COC(=O)CC(=O)CS(=O)(=O)C(c1ccc(Cl)cc1)c1ccc(Cl)cc1 | 76 to 78 |
| CCCc1c(C(C)=O)c2ccc(C(N)=O)cc2n1Cc1ccccc1Cl | 208 to 211 |
| O=S(=O)(F)CCCCCCCc1ccc(OCc2ccccc2)cc1 | 35 to 38 |
